From ChEMBL document CHEMBL5226286, “The application of isatin-based multicomponent-reactions in the quest for new bioactive and druglike molecules” (Eur J Med Chem, 2021)
Converted amounts (≈) assume the structure as drawn.

Columns and labels:
[1] = test system: Mycobacterium tuberculosis variant bovis; test: Antimycobacterial activity against active stage of Mycobacterium bovis BCG ATCC 35743 assessed as minimum inhibitory concentration by NR assay; format: functional
[2] = test system: Mycobacterium tuberculosis variant bovis; test: Antimycobacterial activity against dormant stage of Mycobacterium bovis BCG ATCC 35743 assessed as minimum inhibitory concentration by NR assay; format: functional

| Structure (SMILES) | MIC [1] | MIC [2] |
| --- | --- | --- |
| Cc1cc2c(c(=O)o1)C1(C(=O)N(Cc3cn(Cc4ccc(Cl)cc4)nn3)c3ccccc31)C(C#N)=C(N)O2 (stereo not drawn) | 2.97 µg/mL (≈ 5.64 µM) | 4.35 µg/mL (≈ 8.26 µM) |
| Cc1cc2c(c(=O)o1)C1(C(=O)N(Cc3cn(Cc4ccc(Cl)cc4)nn3)c3ccc(Br)cc31)C(C#N)=C(N)O2 (stereo not drawn) | 4.12 µg/mL (≈ 6.8 µM) | 3.97 µg/mL (≈ 6.55 µM) |
| CC1(C)CC(=O)C2=C(C1)OC(N)=C(C#N)C21C(=O)N(Cc2cn(Cc3ccc(Cl)cc3)nn2)c2ccc(Br)cc21 (stereo not drawn) | 4.32 µg/mL (≈ 6.97 µM) | 3.16 µg/mL (≈ 5.1 µM) |
| Cc1ccc(Cn2cc(CN3C(=O)C4(C(C#N)=C(N)Oc5cc(C)oc(=O)c54)c4cc(Cl)ccc43)nn2)cc1 (stereo not drawn) | 5.24 µg/mL (≈ 9.69 µM) | 5.23 µg/mL (≈ 9.67 µM) |
| CO[C@H]1/C=C/O[C@@]2(C)Oc3c(C)c(O)c4c(O)c(c(/C=N/N5CCN(C)CC5)c(O)c4c3C2=O)NC(=O)/C(C)=C\C=C\[C@H](C)[C@H](O)[C@@H](C)[C@@H](O)[C@@H](C)[C@H](OC(C)=O)[C@@H]1C [RIFAMPIN] | 0.45 µg/mL (≈ 0.547 µM) | 0.81 µg/mL (≈ 0.984 µM) |
| Cc1ccc(Cn2cc(CN3C(=O)C4(C(C#N)=C(N)Oc5cc(C)oc(=O)c54)c4ccccc43)nn2)cc1 (stereo not drawn) | 7.42 µg/mL (≈ 14.6 µM) | 5.36 µg/mL (≈ 10.6 µM) |
| CC1(C)CC(=O)C2=C(C1)OC(N)=C(C#N)C21C(=O)N(Cc2cn(Cc3ccc(Cl)cc3)nn2)c2ccc(Cl)cc21 (stereo not drawn) | 2.87 µg/mL (≈ 4.99 µM) | 3.09 µg/mL (≈ 5.37 µM) |
| Cc1ccc(Cn2cc(CN3C(=O)C4(C(C#N)=C(N)OC5=C4C(=O)CC(C)(C)C5)c4cc(Br)ccc43)nn2)cc1 (stereo not drawn) | 2.87 µg/mL (≈ 4.79 µM) | 6.23 µg/mL (≈ 10.4 µM) |
| Cc1cc2c(c(=O)o1)C1(C(=O)N(Cc3cn(Cc4ccc(Cl)cc4)nn3)c3ccc(Cl)cc31)C(C#N)=C(N)O2 (stereo not drawn) | 3.04 µg/mL (≈ 5.42 µM) | 7.73 µg/mL (≈ 13.8 µM) |
